Values of other authors as cited in patent publication US20260345597A1, “LONG-ACTING AND SUSTAINED-RELEASE PREPARATION COMPOSITION OF LUMATEPERONE AND PREPARATION METHOD THEREOF” (SICHUAN KELUN PHARMACEUTICAL RESEARCH INSTITUTE CO., LTD., priority 2023, published 2026).

System: patients with schizophrenia
Conditions: background

## CN1CCN2c3c(cccc31)[C@@H]1CN(CCCC(=O)c3ccc(F)cc3)CC[C@@H]12 [lumateperone]
  adverse reactions such as weight gain and abnormal lipid metabolism: less likely to cause adverse reactions such as weight gain and abnormal lipid metabolism
Patients with schizophrenia
  effect on symptoms of schizophrenia: alleviating positive symptoms while improving negative symptoms, depressive symptoms, and social functioning
  safety and tolerability profile: superior safety and tolerability profiles
